PMC10762035, “Molecular basis of human trace amine-associated receptor 1 activation” (Nature Communications, 2024)
Positions count from the first letter of the chain named. Values joined by “and” are separate entries in the source; they are usually repeats but may differ in a detail not shown here. Equal entries are not always repeated.

Experiments:
Assay type in all cases: cell-based
hTA1 [1] = target: T1, hTA1 (Homo sapiens, UniProt Q96RJ0); assay: Screen of 89 aminergic compounds at 10 µM, cAMP accumulation in HEK293T cells; conditions: 10 µM of compound; HEK293T; threshold log2-fold change of 2;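 further: HEK293T cells co-transfected with hTA1 and GloSensor cAMP reporter, cAMP accumulation detected by luminescence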
T1 construct: expressed in transfected cells; host or cells: HEK293T
T1 sequence (Q96RJ0 1-339): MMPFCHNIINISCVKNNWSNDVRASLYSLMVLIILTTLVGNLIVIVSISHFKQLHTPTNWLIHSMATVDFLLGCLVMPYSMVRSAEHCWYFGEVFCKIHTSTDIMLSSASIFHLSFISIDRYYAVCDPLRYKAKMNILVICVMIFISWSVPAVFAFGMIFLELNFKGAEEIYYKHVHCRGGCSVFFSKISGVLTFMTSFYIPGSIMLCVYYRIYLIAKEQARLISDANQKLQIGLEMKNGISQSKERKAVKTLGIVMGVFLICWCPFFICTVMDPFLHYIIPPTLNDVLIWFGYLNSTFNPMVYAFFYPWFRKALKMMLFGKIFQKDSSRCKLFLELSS

hTA1 R83H = target: T2, hTA1 R83H (Homo sapiens, UniProt Q96RJ0, R83H); assay: GloSensor cAMP accumulation assay, R83H mutant;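 further: cells transiently co-expressing hTA1 and a cAMP GloSensor, luminescence read 30 min after agonist addition at room temperature, concentration–response fitted by non-linear regression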
T2 construct: expressed in transfected cells; host or cells: HEK293T
T2 sequence (Q96RJ0 1-339 R83H): T1 sequence (Q96RJ0 1-339) with R83H

hTA1 T271N = target: T3, hTA1 T271N (Homo sapiens, UniProt Q96RJ0, T271N); assay: GloSensor cAMP accumulation assay, T271N mutant; conditions: for Normalized Luminescence Counts for Concentration Response Curves: log[Agonist], single replicates
T3 construct: expressed in transfected cells; host or cells: HEK293T
T3 sequence (Q96RJ0 1-339 T271N): T1 sequence (Q96RJ0 1-339) with T271N

hTA1 [2] = target: T1, hTA1; assay: GloSensor cAMP accumulation assay, concentration response, wild-type hTA1 in transfected HEK293T cells; conditions: for Dose-response curves for asenapine vs endogenous trace amines: log[Compound], replicate values (N=2);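 on all read-outs here: luminescence read after 30 min compound exposure at room temperature in cells preloaded with D-Luciferin, reflecting Gs-driven cAMP rise, efficacy scaled to the maximal β-PEA response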

## NCCc1ccccc1 [β-PEA, β-phenethylamine]
hTA1 [1]
  increase of signal over DMSO-treated controls (hTA1 activation): ≥ 4 fold
hTA1 R83H; R83H mutant minus WT average
  ΔEmax values (each mutant value - WT average): 0
  ΔpEC50 values (each mutant value - WT average): -1.391 and -1.424
hTA1 R83H; R83H mutant, each line an independent experiment, 3 replicates
  pEC50 values, Mean: 5.702 and 5.67
hTA1 R83H; R83H mutant, β-PEA = 100, each line an independent experiment, 3 replicates
  Emax values, Mean: 100
hTA1 R83H; R83H, n=2
  Span ± SEM (Emax normalized to β-PEA): 100 ± 5.46
  pEC50 ± SEM: 5.69 ± 0.07
hTA1 R83H; R83H, n=2, read-out: EC50
  EC50: 2060 nM
hTA1 T271N; T271N mutant, Figure 5B, each row one independent experiment (3 replicates)
  pEC50 values, Mean: 6.643 and 6.211
hTA1 T271N; T271N mutant, Figure 5B, β-PEA = 100, each row one independent experiment (3 replicates)
  Emax values, Mean: 100
hTA1 T271N; T271N, M -7
  Normalized Luminescence Counts for Concentration Response Curves: 26.2249 and 22.04 and 25.7454 and 13.723 and 18.7522 and 17.914
hTA1 T271N; T271N, M -7.522
  Normalized Luminescence Counts for Concentration Response Curves: 13.7138 and 6.913 and 9.921 and 7.175 and 4.66 and 5.236
hTA1 T271N; T271N, M -8
  Normalized Luminescence Counts for Concentration Response Curves: 4.385 and 5.17 and 5.257 and 2.984 (2×) and 1.569
hTA1 T271N; T271N, M -8.522
  Normalized Luminescence Counts for Concentration Response Curves: 2.467 and 1.9 and 1.508 and 0.2596 and -0.631 and 0.5215
hTA1 T271N; T271N, M -9
  Normalized Luminescence Counts for Concentration Response Curves: 0.4181 and 0.5052 and 1.246 and -0.2643
hTA1 T271N; T271N, n=2
  Span ± SEM (Emax normalized to β-PEA): 100 ± 3.3
  pEC50 ± SEM: 6.43 ± 0.06
hTA1 T271N; T271N, n=2, read-out: EC50
  EC50: 374 nM
hTA1 [2]; WT hTA1, Figure 5B, β-PEA = 100, average of the independent experiments
  Emax values, Avg: 100
hTA1 [2]; WT hTA1, Figure 5B, β-PEA = 100, each row one independent experiment (3 replicates)
  Emax values, Mean: 100
hTA1 [2]; WT hTA1, average of the two experiments, Figure 2B source data
  pEC50 values, Avg: 7.094
hTA1 [2]; WT hTA1, each line an independent experiment, 3 replicates, Figure 2B source data
  pEC50 values, Mean: 7.155 and 7.032
hTA1 [2]; WT hTA1, β-PEA = 100, average of the two experiments
  Emax values, Avg: 100
hTA1 [2]; WT hTA1, β-PEA = 100, each line an independent experiment, 3 replicates
  Emax values, Mean: 100
hTA1 [2]; WT, Avg of the two experiments, β-PEA = 100
  Emax values, Avg: 100
hTA1 [2]; WT, average of the experiments, β-PEA = 100
  Emax values, Avg: 100
hTA1 [2]; WT, average of the two experiments
  Emax values, Avg: 100
hTA1 [2]; WT, mean of each independent experiment (3 replicates), β-PEA = 100
  Emax values, Mean: 100
hTA1 [2]; WT, mean of one experiment (3 replicates), β-PEA = 100
  Emax values, Mean: 100
hTA1 [2]; WT, single experiments (3 replicates each), β-PEA = 100
  Emax values, Mean: 100
hTA1 [2]; M = -5
  Dose-response curves for asenapine vs endogenous trace amines: 114.55 and 104.58 and 118.623 and 102.53 and 95.7683 and 107.085
hTA1 [2]; M = -5.522
  Dose-response curves for asenapine vs endogenous trace amines: 96.3904 and 87.8446 and 97.5922 and 98.0692 and 90.9789 and 92.0588
hTA1 [2]; M = -6
  Dose-response curves for asenapine vs endogenous trace amines: 88.2006 and 75.1148 and 94.0536 and 103.14 and 88.8658 and 89.805
hTA1 [2]; M = -6.522
  Dose-response curves for asenapine vs endogenous trace amines: 73.7573 and 64.299 and 91.1383 and 74.7791 and 68.7219 and 73.7461
hTA1 [2]; M = -7
  Dose-response curves for asenapine vs endogenous trace amines: 70.4636 and 45.5827 and 61.4726 and 66.5619 and 44.258 and 53.6961
hTA1 [2]; M = -7.522
  Dose-response curves for asenapine vs endogenous trace amines: 36.1467 and 21.3027 and 35.9464 and 26.7905 and 17.9158 and 22.3766
hTA1 [2]; M = -8
  Dose-response curves for asenapine vs endogenous trace amines: 22.727 and 16.7405 and 21.3472 and 13.3611 and 11.9525 and 11.6238
hTA1 [2]; M = -8.522
  Dose-response curves for asenapine vs endogenous trace amines: 4.5 and 4.523 and 5.969 and 4.393 and 2.514 and 2.6083
hTA1 [2]; M = -9
  Dose-response curves for asenapine vs endogenous trace amines: 1.986 and 1.318 and 1.8743 and 1.716 and 1.012 and 1.106
hTA1 [2]; M = -9.522
  Dose-response curves for asenapine vs endogenous trace amines: -1.063 and -1.33 and -0.4402 and -0.06817 and 0.1666 and -0.4908
hTA1 [2]; M = -10
  Dose-response curves for asenapine vs endogenous trace amines: -0.596 and -1.264 and -0.5515 and -0.4438 and -0.7725 and -0.6786
hTA1 [2]; M = -10.522
  Dose-response curves for asenapine vs endogenous trace amines: -1.3749 and -1.931 and -0.6405 and 0.0727 and -0.5847 and -1.101
hTA1 [2]; M = -11
  Dose-response curves for asenapine vs endogenous trace amines: -0.1286 and -1.241 and 0.2497 and 0.6362 and -0.3499 and -0.7725
hTA1 [2]; M = -11.522
  Dose-response curves for asenapine vs endogenous trace amines: -0.01735 and -1.575 and -0.7963 and 0.5892 and -0.3969 and -0.256
hTA1 [2]; M = -12
  Dose-response curves for asenapine vs endogenous trace amines: -1.353 and -1.3749 and -1.286 and 0.02574 and -0.4908 and -0.3029
hTA1 [2]; M = -12.522
  Dose-response curves for asenapine vs endogenous trace amines: -1.152 and -1.664 and -0.9075 and 0.5892 (2×) and 0.4483
hTA1 [2]; wt hTA1, HEK293T, n=3
  Span ± SEM (Emax normalized to β-PEA): 100 ± 2.26
  pEC50 ± SEM: 7.09 ± 0.05
hTA1 [2]; wt hTA1, HEK293T, n=3, read-out: EC50
  EC50: 80.6 nM
hTA1 [2]; wt hTA1, relative to β-PEA
  Emax: 100.0%
